{
  "source": "paper PMC4389443",
  "about": "(Respiratory Research, 2015)",
  "key": {"normal volunteers [1]": {"tested_on": "normal volunteers", "parameters": "method as in PMID 19643947, PMID 21426372, PMID 24341382", "details": "cited from earlier work"}, "normal volunteers [2]": {"tested_on": "normal volunteers", "parameters": "method as in PMID 19643947, PMID 21426372, PMID 24341382", "details": "cited from earlier work", "remark": "listed apart in the source"}, "BALB/c mice [3]": {"tested_on": "BALB/c mice", "assay": "House dust mite/Rhinovirus exacerbated asthma model", "format": "in vivo, mouse", "details": "24 hours post RV1b infection; for Total BALF neutrophils: PXS-4728A 2, dexamethasone 2, azithromycin 25 mg.kg^−1 ip.", "protocol": "Study performed at the University of Newcastle under local ethics committee. BALB/c mice were sensitized and challenged intranasally to 50 μg of crude HDM extract (Dermatophagoides pteronyssinus extract was obtained from Greer Laboratories) on days 0, 1 and 2 followed by four exposures of 5 μg HDM daily from day 14 to day 17 delivered in 50 μl of sterile saline. Animals were then infected on day 18 with infective Human Rhinovirus 1b RV1B41 (2.5 × 10^6 median tissue culture infective dose) intranasally. Mice were intranasally administered 50 μl infective or ultraviolet light (UV)–inactivated RV1B41. Mice were euthanized 24 hours after the rhinovirus challenge. BAL analysis was performed for total and differential counts and airway hyperreactivity (AHR) was assessed invasively by measurement of total lung resistance and dynamic compliance (BUXCO) in response to methacholine challenge as previously described. […]. Dose of azithromycin was chosen based on previously described findings, in respiratory viral infection models."}, "[4]": {"tested_on": "patients with severe neutrophilic asthma", "parameters": "method as in PMID 23291349", "details": "significance lost when all patients analysed together; cited from earlier work"}, "BALB/c mice [5]": {"tested_on": "BALB/c mice", "assay": "Klebsiella pneumoniae lung infection", "details": "24 hours"}, "BALB/c mice [6]": {"tested_on": "BALB/c mice", "assay": "LPS airway inflammation, 6 hour time point", "details": "6 hours after LPS; PXS-4728A 0.2 or 2 mg.kg^−1, dexamethasone 10 mg.kg^−1, oral 1 hour prior"}, "C57/BL6 mice": {"tested_on": "C57/BL6 mice", "assay": "Cecal ligation and puncture (CLP) induced sepsis", "details": "6 hours; PXS-4728A 6 mg.kg^−1, dexamethasone 5 mg.kg^−1, oral 1 hour prior to surgery"}, "[7]": {"details": "PXS-4728A 6 mg.kg^−1, dexamethasone 10 mg.kg^−1, oral 1 hour prior to infection"}},
  "data": [
    {"smiles": "O=C(Nc1ccc(Cl)c(S(=O)(=O)N2CCNCC2)c1O)Nc1cccc(F)c1Cl", "note": "[SB-656933]", "values": [
      {"measurement": "Increased neutrophil content in sputum as a result of ozone challenge", "setting": "normal volunteers [1]", "result": "inhibit"}
    ]},
    {"smiles": "C[C@H](CO)Nc1nc(SCc2cccc(F)c2F)nc2[nH]c(=O)sc12", "note": "[AZD8309]", "values": [
      {"measurement": "Efficacy during inhaled LPS challenge", "setting": "normal volunteers [2]", "result": "efficacious"}
    ]},
    {"smiles": "CC[C@H]1OC(=O)[C@H](C)[C@@H](O[C@H]2C[C@@](C)(OC)[C@@H](O)[C@H](C)O2)[C@H](C)[C@@H](O[C@@H]2O[C@H](C)C[C@H](N(C)C)[C@H]2O)[C@](C)(O)C[C@@H](C)CN(C)[C@H](C)[C@@H](O)[C@]1(C)O", "note": "[azithromycin]", "values": [
      {"measurement": "Airways hyperreactivity to methacholine challenge", "setting": "BALB/c mice [3]; PXS-4728A 2, azithromycin 25 mg.kg^−1 ip.", "result": "significantly reduced"},
      {"measurement": "Total BALF neutrophils", "setting": "BALB/c mice [3]", "result": "significantly dampened"},
      {"measurement": "Exacerbation rates", "setting": "[4]", "result": "reduced exacerbation rates"}
    ]},
    {"smiles": "C[C@@H]1C[C@H]2[C@@H]3CCC4=CC(=O)C=C[C@]4(C)[C@@]3(F)[C@@H](O)C[C@]2(C)[C@@]1(O)C(=O)CO", "note": "[dexamethasone, reference compound]", "values": [
      {"measurement": "Total BALF neutrophils", "setting": "BALB/c mice [3]", "result": "no impact"},
      {"measurement": "Neutrophil migration into the airway spaces (BALF)", "setting": "BALB/c mice [5]; [7]", "result": "significantly dampened"},
      {"measurement": "Total leukocyte migration into the airway spaces (BALF)", "setting": "BALB/c mice [5]; [7]", "result": "significantly dampened"},
      {"measurement": "Log 10-CFU in the lung (bacterial load), average", "setting": "BALB/c mice [5]; PXS-4728A 6 mg.kg^−1, dexamethasone 10 mg.kg^−1, vehicle 7.59", "result": 8.86, "unit": "LOG 10-CFU"},
      {"measurement": "Influx of neutrophils in BALF", "setting": "BALB/c mice [6]", "result": "reduction"},
      {"measurement": "Peritoneal neutrophils", "setting": "C57/BL6 mice", "result": "greatly diminished"},
      {"measurement": "Total peritoneal inflammatory cells", "setting": "C57/BL6 mice", "result": "greatly diminished"}
    ]},
    {"smiles": "CC[C@@H](Nc1c(Nc2cccc(C(=O)N(C)C)c2O)c(=O)c1=O)c1ccc(C)o1", "note": "[SCH527123]", "values": [
      {"measurement": "Increased neutrophil content in sputum as a result of ozone challenge", "setting": "normal volunteers [1]", "result": "inhibit"}
    ]}
  ]
}
